From patent US9018188B2, “MicroRNA inhibitors” (Ottawa Hospital Research Institute, priority 2011, dated 2015)

Test system: miR-133
Assay: miR-133 biosensor luciferase assay in C2C12 myoblast clones
Type: cell-based
Conditions: C2C12 clone A10, 48 hours in growth media; TGF-β 10 ng/mL, Insulin 850 nM, IBMX 0.5 mM, AICAR 0.5 mM, Dexamethasone 1
From the text: The design of the miR-133 biosensor is based on the principle that recognition of microRNA target sites in 3′UTR by microRNA/RISC leads to the inhibition of the translation of the target mRNAs. An artificial 3′UTR containing optimized miR-133 target sites in tandem was designed and cloned downstream of the open reading frames of firefly luciferases and GFP, which in together function as miR-133 biosensor (FIG. 9A), in a lentiviral vector. C2C12 myoblast clones were infected with lentiviruses carrying the miR-133 biosensor and selected for stable expression of the reporter construct. Activity of potential modulators or miR-133 is tested and read as a reverse correlation between miR-133 functionality and luciferase/GFP intensities. The construct can be used for live-cell imaging (in vitro and in vivo) and allows real-time detection.
Two miR-133 biosensor plasmids were constructed—pCMV-FireflyLuc_miR133TS_EF1_Puro and pCMV-RenillaLuc—133TS_EF1_Puro. In the pCMV-FireflyLuc—133TS_EF1_Puro plasmid, five tandem miR-133 target sites (miR133TS; 5′-[…]-3′, SEQ ID NO:22) was cloned downstream of a firefly luciferase ORF (with a stop codon), which is driven by a CMV promoter. These miR-133 target sites in whole serve as an artificial 3′ UTR of firefly luciferase transcript. The “GGACCAAA” sequence in the miR-133 target sites is complementary to the nucleotide positions 1-8 in miR-133a and miR-133b. The “TAGCTGGTTG” sequence in the miR-133 target sites is complementary to the nucleotide positions 13-22 in miR-133a and miR-133b. The remaining sequence “CCA” sequence in the middle will not anneal to the miR-133a or miR-133b, which will form a “bulge” structure when miR-133a/b anneal to the RNA transcript of miR-133 target sites. This fireflyLuc_miR133TS cassette was further cloned into a lentivirus backbone. In the pCMV-RenillaLuc—133TS_EF1_Puro plasmid, the firefly luciferase ORF was replaced by a renilla luciferase ORF. pCMV-FireflyLuc_miR133TS_EF1_Puro and pCMV-RenillaLuc—133TS_EF1_Puro plasmids were used to generate lentivirus particles in 293T cells, which were used to infect C2C12 myoblasts. Infected C2C12 myoblasts were selected by Puromycin (2 mg/L) and clonally expanded. C2C12 clones, C11 and C3, were used in subsequent experiments.
In one experiment, a C2C12 clone C11 (25,000 cells per well on 24-well plates), was transfected with 0.5 nM and 5 nM miR-133 mimetics (Life Technologies/Ambion), which can be processed into mature miR-133 in cells. […] Both experiments were performed with 6 replicates and Z-scores above 0.5 were achieved.
In one experiment, a C2C12 clone (A10; 25,000 cells per well in 24-well plates) was treated with drugs and biologics for 48 hours in growth media. […]

Row | effect on miR-133 by luciferase assays | Molecule
1 | enhancers of miR-133 | NC(=O)c1ncn([C@@H]2O[C@H](CO)[C@@H](O)[C@H]2O)c1N [AICAR, 5′ amino-1-βD-ribofuranosyl-imidazole-4-carboxamide, reference compound]
2 | enhancers of miR-133 | CC(C)Cn1c(=O)n(C)c(=O)c2[nH]cnc21 [IBMX, 3-isobutyl-1-methylxanthine, reference compound]
3 | inhibitors of miR-133 | TGF-β
4 | inhibitors of miR-133 | Insulin
